Structures are written as SMILES.

Here are results for 20 molecules from patent EP4553077A1 (Kinoteck Therapeutics Co., Ltd, priority 2022, dated 2024).

For one data set, the system named is A204 cells. The data set can be described thus: Proliferation inhibition, CCK-8 colorimetric method. The note with it: 72 h. The format is cell-based. The procedure: (§1) CCK-8 (Bimake/B34304) colorimetric method was used to detect the in vitro proliferation inhibitory effect of compounds on suspended or adherent cells in this experiment. The specific experimental steps were as follows: • 1) Cell plating: SNU16 and A204 tumor cells (cells from Shanghai Institute of Organic Chemistry, Chinese Academy of Sciences) in the logarithmic growth phase were digested and centrifuged for trypan blue counting, and the cells were seeded into a transparent 96 well plate at a density of 4000 cells/100 µ 1/well. […] The test compound and control compound stock solution were diluted with the corresponding culture medium required for cell culture (with or without solvent DMSO) to obtain a series of working solutions, with concentrations of twice the final concentration. The solvent DMSO contents in each concentration group were consistent with that of the solvent control group. The final concentration of A204 cells started at 10 µM and was diluted twice.
(§2) Calculation of cell survival rate: Cell survival rate (%)=[(As-Ac)/(Ab-Ac)] × 100%] (As: experimental well; Ab: Solvent control well; Ac: Blank well).
In general terms: Tetrazolium dyes change colour on reduction, which living cells bring about.

A further data set has as its system SNU16 cells. Described as above. The format is cell-based. The method, then:
as §1, §2

The target of the next data set is Ba/F3-TEL-FGFR2 (Homo sapiens, UniProt P21802+P41212). Briefly: Cell viability (proliferation inhibition) of Ba/F3 cells, CellTiter Glo. The note with it: read-out: Ba/F3 cell FGFR2 (IC50 nM), 72 h. (In general: Cellular ATP, detected with luciferase, serves as a proxy for viable cell number.)
Another data set deals with Ba/F3-TEL-FGFR1 (Homo sapiens, UniProt P11362+P41212). The data set is described as above. The note with it: read-out: Ba/F3 cell FGFR1 (IC50 nM), 72 h.
The next data set deals with Ba/F3-TEL-FGFR3 (Homo sapiens, UniProt P22607+P41212). The data set is described as above. Particulars: read-out: Ba/F3 cell FGFR3 (IC50 nM), 72 h.
Data set [1] in a line: Pharmacokinetic test in rats. Particulars: rat, plasma, oral gavage administration, 10 mg/kg. The format is in vivo, male SD rats. The method, then:
Rat pharmacokinetic experiments were performed using male SD rats, 180-220g, provided by Beijing Vital River Laboratory Animal Technology Co., Ltd. 3 rats that were fasted overnight were taken, and administered orally by gavage (10 mg/kg). Blood samples were collected before administration, as well as 5, 15, 30 min and 1, 2, 4, 6, 8, 24 h after administration; another 3 rats were taken and administered intravenously (1 mg/kg), blood samples were collected before administration, as well as 5, 15, 30 min and 1, 2, 4, 6, 8, 24 h after administration. Blood sample was centrifuged at 6800g, 2-8 °C for 6 min, and plasma was collected, and stored at -80 °C. Plasma of each time point was taken, 10 times the amount of 50% methanol acetonitrile solution containing internal standard was added, and mixed by vortex for 5 min, centrifuged at 18000 rpm at 4 °C for 10 min, and the supernatant was taken directly for LC-MS/MS analysis. The main pharmacokinetic parameters were analyzed using WinNonlin8.2 software for non compartmental model analysis. Table 3: pharmacokinetic test in rats results of test compounds

Ba/F3-TEL-FGFR1, sequence (P11362 478-767 limits assumed, one chain of several): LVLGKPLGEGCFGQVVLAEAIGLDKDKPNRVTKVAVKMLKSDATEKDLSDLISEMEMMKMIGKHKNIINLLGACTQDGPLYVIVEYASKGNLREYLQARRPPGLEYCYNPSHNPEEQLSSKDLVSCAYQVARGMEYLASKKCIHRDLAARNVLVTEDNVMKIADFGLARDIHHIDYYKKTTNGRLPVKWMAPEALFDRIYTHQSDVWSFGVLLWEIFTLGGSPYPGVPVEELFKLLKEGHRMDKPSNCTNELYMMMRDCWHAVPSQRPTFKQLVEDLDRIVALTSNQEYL
Ba/F3-TEL-FGFR3, sequence (P22607 472-761 limits assumed, one chain of several): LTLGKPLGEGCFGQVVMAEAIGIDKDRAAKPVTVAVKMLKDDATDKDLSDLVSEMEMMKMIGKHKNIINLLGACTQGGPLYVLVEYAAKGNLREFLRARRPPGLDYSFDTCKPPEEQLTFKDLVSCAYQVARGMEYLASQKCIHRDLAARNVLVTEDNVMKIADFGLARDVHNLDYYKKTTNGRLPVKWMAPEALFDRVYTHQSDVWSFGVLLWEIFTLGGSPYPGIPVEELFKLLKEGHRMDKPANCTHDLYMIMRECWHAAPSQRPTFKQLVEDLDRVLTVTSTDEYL
Ba/F3-TEL-FGFR2, sequence (P21802 481-770 limits assumed, one chain of several): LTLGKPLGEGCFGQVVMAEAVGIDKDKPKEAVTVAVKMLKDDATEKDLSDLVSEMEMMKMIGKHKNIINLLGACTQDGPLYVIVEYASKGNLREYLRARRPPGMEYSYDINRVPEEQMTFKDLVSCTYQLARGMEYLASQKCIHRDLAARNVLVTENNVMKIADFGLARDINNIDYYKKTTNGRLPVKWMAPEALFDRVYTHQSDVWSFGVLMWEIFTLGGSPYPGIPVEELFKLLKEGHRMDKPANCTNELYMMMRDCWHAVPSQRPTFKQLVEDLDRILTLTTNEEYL

Regarding `C=C(C)C(=O)Nc1ccc(-c2c(-c3ccc(N=S4(=O)CCC4)c(Cl)c3)c3c(N)ncnc3n2C)c(F)c1` [Compound 104], the IC50 in the data set with A204 cells (Homo sapiens) was determined as 1020 nM; in the data set on SNU16 cells (Homo sapiens, SNU-16, 72 h) it was 5.51 nM; at Ba/F3-TEL-FGFR2 it was 0.9 nM; on Ba/F3-TEL-FGFR1, 640 nM.
As to `C=C(C)C(=O)Nc1ccc(-c2c(-c3ccc(N=S4(=O)CCC4)c(F)c3)c3c(N)ncnc3n2C)c(Cl)c1` [Compound 74, N-(4-(4-amino-5-(3-fluoro-4-(1-oxo-1λ^6-thietan-1-imino)phenyl) -7-methyl-7H-pyrrolo[2,3-d]pyrimidin-6-yl)-3-chlorophenyl)methacrylamide], the IC50 with A204 cells (Homo sapiens) turned out to be 595 nM; in the data set with SNU16 cells (Homo sapiens, SNU-16, 72 h) it was 1.19 nM; on Ba/F3-TEL-FGFR2 it was 0.5 nM; on Ba/F3-TEL-FGFR1, 300 nM.
Turning to `[2H]C([2H])([2H])n1c(-c2ccc(NC(=O)C(=C)C)cc2F)c(-c2ccc(N=S3(=O)CCCC3)c(F)c2)c2c(N)ncnc21` [Compound 94], the IC50 came out at 205 nM on Ba/F3-TEL-FGFR3, 1.1 nM at Ba/F3-TEL-FGFR2 and 625 nM on Ba/F3-TEL-FGFR1.
With `[2H]C([2H])([2H])n1c(-c2ccc(NC(=O)C(=C)C)cc2F)c(-c2ccc(N=S3(=O)CCC3)c(F)c2)c2c(N)ncnc21` [Compound 97, N-(4-(4-amino-5-(3-fluoro-4-((1-oxo-1 λ^6-thiophene-1-ylidene)amino)phenyl) -7-(methyl-d3) -7H-pyrrole [2,3-d]pyrimidin-6-yl) -3-fluorophenyl) methacrylamide], the IC50 in the data set on A204 cells (Homo sapiens) came to 764 nM; in the data set with SNU16 cells (Homo sapiens, SNU-16, 72 h) it was 2.66 nM; at Ba/F3-TEL-FGFR2, 1.9 nM; at Ba/F3-TEL-FGFR1, 480 nM.
With `C=C(C)C(=O)Nc1ccc(-c2c(-c3ccc(N=S4(=O)CCCCC4)c(F)c3)c3c(N)ncnc3n2C)c(F)c1` [Compound 7], the IC50 was 545 nM at Ba/F3-TEL-FGFR3, 2.4 nM at Ba/F3-TEL-FGFR2 and 627 nM on Ba/F3-TEL-FGFR1.
As to `CC#CC(=O)Nc1ccc(-c2c(-c3ccc(N=S4(=O)CCCCC4)c(F)c3)c3c(N)ncnc3n2C)cc1` [Compound 35, N-(4-(4-amino-5-(3-fluoro-4-((1-oxotetrahydro-2H-1 λ^6-thiopyran-1-ylidene)amino)phenyl) -7-methyl-7H-pyrrolo [2,3-d]pyrimidin-6-yl)phenyl) but-2-ynamide], the IC50 in the data set on A204 cells (Homo sapiens) amounted to 406 nM; in the data set with SNU16 cells (Homo sapiens, SNU-16, 72 h), 4.91 nM; on Ba/F3-TEL-FGFR2, 4.4 nM.
On the same counts, the results for `C=C(F)C(=O)Nc1ccc(-c2c(-c3ccc(N=S4(=O)CCCC4)c(F)c3)c3c(N)ncnc3n2C)cc1` [Compound 21, N-(4-(4-amino-5-(3-fluoro-4-((1-oxotetrahydro-1 λ^6-thiophene-1-ylidene)amino)phenyl) -7-methyl-7H-pyrrolo [2,3-d]pyrimidin-6-yl)phenyl) -2-fluoroacrylamide] are 333 nM, 1.72 nM and 0.8 nM.
Regarding `CCN1CCN(c2ccc(Nc3cc(N(C)C(=O)Nc4c(Cl)c(OC)cc(OC)c4Cl)ncn3)cc2)CC1` [BGJ398, reference compound], the IC50 in the data set with A204 cells (Homo sapiens) was 100 nM; in the data set on SNU16 cells (Homo sapiens, SNU-16, 72 h), 4.3 nM.
As to `C=C(C)C(=O)Nc1ccc(-c2c(-c3ccc(N=S4(=O)CC(C)(C)C4)cc3)c3c(N)ncnc3n2C)c(F)c1` [Compound 63], the IC50 on Ba/F3-TEL-FGFR2 was 1.1 nM. In addition, in data set [1], the AUC(0-t) turned out to be 1700 ng·h/mL, the Cmax was found to be 556 ng/mL, the Tmax stood at 30 min and the half-life is 155 min. The IC50 at Ba/F3-TEL-FGFR1 came to 396 nM.
With `[2H]C([2H])([2H])n1c(-c2ccc(NC(=O)C(=C)C)cc2F)c(-c2ccc(N=S(=O)(CC)CC)cc2)c2c(N)ncnc21` [Compound 109], the IC50 in the data set on A204 cells (Homo sapiens) worked out at 1040 nM; with SNU16 cells (Homo sapiens, SNU-16, 72 h), 9.38 nM; at Ba/F3-TEL-FGFR2, 4.5 nM.
Take `C=C(C)C(=O)Nc1ccc(-c2c(-c3ccc(Oc4nccc(C)n4)c(F)c3)c3c(N)ncnc3n2C)cc1` [Control compound I, reference compound]: in the data set with A204 cells (Homo sapiens), the IC50 stood at 3220 nM. Besides, in the data set on SNU16 cells (Homo sapiens, SNU-16, 72 h), the IC50 was 13.2 nM. In addition, in data set [1] (male, SD), the AUC(0-t) was 606 ng·h/mL, the Cmax came to 141 ng/mL, the Tmax amounted to 40.2 min and the half-life is 51 min.
Regarding `C=C(C)C(=O)Nc1ccc(-c2c(-c3ccc(N=S4(=O)CCCC4)c(Cl)c3)c3c(N)ncnc3n2C)c(F)c1` [Compound 88, N-(4-(4-amino-5-(3-chloro-4-((1-oxidetetrahydro-1 λ^6-thiophene-1-ylidene)amino)phenyl) -7-methyl-7H-pyrrolo [2,3-d]pyrimidin-6-yl) -3-fluorophenyl) methacrylamide], the IC50 was 216 nM at Ba/F3-TEL-FGFR3, 1.5 nM at Ba/F3-TEL-FGFR2 and 561 nM at Ba/F3-TEL-FGFR1.
In the case of `C=C(C)C(=O)Nc1ccc(-c2c(-c3ccc(N=S4(=O)CCCC4)c(F)c3)c3c(N)ncnc3n2C)c(C)c1` [Compound 22, N-(4-(4-amino-5-(3-fluoro-4-((1-oxotetrahydro-1 λ^6-thiophene-1-ylidene)amino)phenyl) -7-methyl-7H-pyrrolo [2,3-d]pyrimidin-6-yl) -3-methylphenyl) methacrylamide], the IC50 in the data set on A204 cells (Homo sapiens) amounted to 1610 nM; with SNU16 cells (Homo sapiens, SNU-16, 72 h) it was 4.97 nM; on Ba/F3-TEL-FGFR2 it was 2.7 nM; on Ba/F3-TEL-FGFR1, 717 nM.
Consider `C=C(C)C(=O)Nc1ccc(-c2c(-c3ccc(N=S(=O)(CC)CC)c(F)c3)c3c(N)ncnc3n2C)c(F)c1` [Compound 100], for which the IC50 on Ba/F3-TEL-FGFR3 came out at 414 nM; on Ba/F3-TEL-FGFR2, 1.9 nM; at Ba/F3-TEL-FGFR1, 823 nM.
Turning to `C=C(C)C(=O)Nc1ccc(-c2c(-c3ccc(N=S(=O)(CC)CC)cc3)c3c(N)ncnc3n2C)c(Cl)c1` [Compound 102], the IC50 in the data set on A204 cells (Homo sapiens) came to 502 nM; in the data set with SNU16 cells (Homo sapiens, SNU-16, 72 h), 2.63 nM; on Ba/F3-TEL-FGFR2, 0.6 nM.
Take `[2H]C([2H])([2H])n1c(-c2cc(C)c(NC(=O)C(=C)C)cc2Cl)c(-c2ccc(N=S3(=O)CCCC3)c(F)c2)c2c(N)ncnc21` [Compound 90, N-(4-(4-amino-5-(3-fluoro-4-((1-tetrahydro-1λ^6-thiophene-1-ylidene)amino)phenyl) -7-(methyl-d3) -7H-pyrrolo [2,3-d]pyrimidin-6-yl) -5-chloro-2-methylphenyl) methacrylamide]: the IC50 was found to be 174 nM on Ba/F3-TEL-FGFR3 and 3.6 nM on Ba/F3-TEL-FGFR2.
`[2H]C([2H])([2H])n1c(-c2ccc(NC(=O)C(=C)C)cc2F)c(-c2ccc(N=S3(=O)C=CC=C3)cc2)c2c(N)ncnc21` [Compound 98, N-(4-(4-amino-7-(methyl-d3) -5-(4-((1-oxo-1 λ^6-thiophene-1-ylidene)amino)phenyl) -7H-pyrrolo [2,3-d]pyrimidin-6-yl) -3-fluorophenyl) methacrylamide]: the IC50 turned out to be 845 nM in the data set with A204 cells (Homo sapiens); 1.81 nM with SNU16 cells (Homo sapiens, SNU-16, 72 h); 0.6 nM at Ba/F3-TEL-FGFR2; 416 nM on Ba/F3-TEL-FGFR1.
Take `C=C(F)C(=O)Nc1ccc(-c2c(-c3ccc(N=S4(=O)CCCCC4)cc3)c3c(N)ncnc3n2C)cc1` [Compound 68, N-(4-(4-amino-7-methyl-5-(4-((1-oxotetrahydro-2H-1 λ^6-thiopyran-1-ylidene)amino)phenyl)-7H-pyrrolo[2,3-d]pyrimidin-6-yl)phenyl)-2-fluoroacrylamide]: the IC50 came out at 267 nM in the data set with A204 cells (Homo sapiens); 1.65 nM in the data set on SNU16 cells (Homo sapiens, SNU-16, 72 h); 0.5 nM on Ba/F3-TEL-FGFR2.
As to `C=C(C)C(=O)Nc1ccc(-c2c(-c3ccc(N=S(=O)(N(C)C)C(F)(F)F)cc3)c3c(N)ncnc3n2C)c(F)c1` (centres unmarked) [Compound 32], the IC50 in the data set with A204 cells was determined as 2250 nM; in the data set with SNU16 cells (72 h), 9.56 nM; at Ba/F3-TEL-FGFR2, 0.4 nM.
With `C=C(C)C(=O)Nc1ccc(-c2c(-c3ccc(N=S4(=O)CCC4)cc3)c3c(N)ncnc3n2C)c(F)c1` [Compound 8], in the data set with A204 cells (Homo sapiens), the IC50 turned out to be 618 nM. The molecule further showed an IC50 with SNU16 cells (Homo sapiens, SNU-16, 72 h) of 1.34 nM. The IC50 at Ba/F3-TEL-FGFR2 amounted to 0.7 nM. Also, in data set [1], the AUC(0-t) came to 630 ng·h/mL, the Cmax is 352 ng/mL, the Tmax came out at 15 min and the half-life was 109 min. In addition, the IC50 at Ba/F3-TEL-FGFR1 amounted to 600 nM.

By AUC(0-t) is commonly meant exposure summed from dosing to a finite time, without extrapolation to infinity. Higher therefore signals high exposure. The term Cmax denotes the peak of the concentration-time curve. What is called Tmax is the time from dosing to the highest level. As usually defined, the half-life is the time needed for the level to fall by half in the phase considered. Lower therefore signals rapid decline.
